The record followed here is US20250361543A1, “Instrumentation for Rapid Antimicrobial Susceptibility Testing from Bodily Fluids and Cultures” (Georgia Tech Research Corporation, priority 2022, published 2025).

Values after ≈ are worked out from the molar mass of the structure shown. Like-named read-outs stand apart in the source and are kept apart here.

The test system of the test is Escherichia coli. The test is described as follows: Plate reader antimicrobial susceptibility test (MIC) directly from positive blood culture. It is filed as cell-based. As to conditions: for MIC: Escherichia coli. On the procedure:
The tests can also provide a low labor cost. Disclosed in this example are systems and methods for performing ASTs directly from positive blood cultures. De-identified hospital patient positive blood cultures were received within 8 hours of being flagged positive. ASTs were performed using various antimicrobial agents, namely seven antibiotics (ceftazidime, meropenem, tobramycin, levofloxacin, cefepime, gentamicin, and amikacin). The positive blood cultures were diluted 250-fold in cation-adjusted Mueller-Hinton Broth (CAMHB) media and 100 μL of this diluted sample was dispensed into each well of a 96-well microtiter plate, already containing 100 μL of varying concentration of one antibiotic. […] The sample-filled 96-well plate was sealed by sterile plastic film and incubated in a microtiter plate reader at 37° C. A temperature gradient of 0.5° C. was selected to prevent condensation on cover film. Each well was scanned every one hour from 400 to 895 nm with a 5 nm step starting from the time of incubation (0 hours) resulting in a total of nineteen spectra per well.
Relating to data analysis-spectra (400 to 895 nm) vs time were acquired from each well. Spectral principal components (PCs) were computed for all wells at each time point and those explaining at least 90% of the variance were calculated. […] Determining the lowest concentration for each antibiotic that inhibited growth based on these spectral overlaps determined the MIC for each antibiotic used.
The antibiotics concentrations are as in the plate layout and growth is measures as absorption at each excitation wavelength compares with the positive controls. Dark red indicates growth while bright red indicates no growth.

Setting [1] is: 6 hours incubation at 37° C, positive blood culture diluted 500-fold in CAMHB, assay of FIG. 4, read-out: MIC (6 hours).
Where [2] appears, read: 8 hours incubation at 37° C, positive blood culture diluted 500-fold in CAMHB, assay of FIG. 4, read-out: MIC (8 hours).
Setting [3] is: 10 hours incubation at 37° C, positive blood culture diluted 500-fold in CAMHB, assay of FIG. 4, read-out: MIC (10 hours).
The mark [4] stands for this setting: 18 hours incubation at 37° C, positive blood culture diluted 500-fold in CAMHB, assay of FIG. 4, read-out: MIC (18 hours).

With `CO/N=C(\C(=O)N[C@@H]1C(=O)N2C(C(=O)[O-])=C(C[N+]3(C)CCCC3)CS[C@H]12)c1csc(N)n1` [Cefepime, cefepime], the MIC (6 h, read-out: MIC (6 hours)) was at most 0.0312 µg/mL; the MIC (8 h, read-out: MIC (8 hours)) was at most 0.0312 µg/mL; the MIC (10 h, read-out: MIC (10 hours)) is at most 0.0312 µg/mL; the MIC (18 h, read-out: MIC (18 hours)) was at most 0.0312 µg/mL.
`NC[C@H]1O[C@H](O[C@H]2[C@H](O)[C@@H](O[C@H]3O[C@H](CO)[C@@H](O)[C@H](N)[C@H]3O)[C@H](N)C[C@@H]2N)[C@H](N)C[C@@H]1O` [Tobramycin, tobramycin]: the MIC was 1 µg/mL (≈ 2.14 µM) under setting [1], 1 µg/mL (≈ 2.14 µM) under setting [2], 1 µg/mL (≈ 2.14 µM) under setting [3] and 1 µg/mL (≈ 2.14 µM) under setting [4].
For gentamicin, the “MIC (6 hours)” value (6 hours incubation at 37° C, positive blood culture diluted 500-fold in CAMHB, assay of FIG. 4) worked out at 1 µg/mL. Further, the “MIC (8 hours)” value (8 hours incubation at 37° C, positive blood culture diluted 500-fold in CAMHB, assay of FIG. 4) worked out at 1 µg/mL. Further, the “MIC (10 hours)” value (10 hours incubation at 37° C, positive blood culture diluted 500-fold in CAMHB, assay of FIG. 4) turned out to be 1 µg/mL. For the same molecule, the “MIC (18 hours)” value (18 hours incubation at 37° C, positive blood culture diluted 500-fold in CAMHB, assay of FIG. 4) was 1 µg/mL.
Consider `C[C@H]1COc2c(N3CCN(C)CC3)c(F)cc3c(=O)c(C(=O)O)cn1c23` [Levofloxacin, levofloxacin], for which the MIC was at most 0.0312 µg/mL under setting [1], at most 0.0312 µg/mL under setting [2], at most 0.0312 µg/mL under setting [3] and at most 0.0312 µg/mL under setting [4].
As to `CC(C)(O/N=C(\C(=O)N[C@@H]1C(=O)N2C(C(=O)[O-])=C(C[n+]3ccccc3)CS[C@H]12)c1csc(N)n1)C(=O)O` [Ceftazidime, ceftazidime], the MIC amounted to 0.0625 µg/mL (≈ 0.114 µM) under setting [1], 0.0625 µg/mL (≈ 0.114 µM) under setting [2], 0.0625 µg/mL (≈ 0.114 µM) under setting [3] and 0.0625 µg/mL (≈ 0.114 µM) under setting [4].
`C[C@@H](O)[C@H]1C(=O)N2C(C(=O)O)=C(S[C@@H]3CN[C@H](C(=O)N(C)C)C3)[C@H](C)[C@H]12` [Meropenem, meropenem]: the MIC by setting is: under setting [1], at most 0.0312 µg/mL; under setting [2], at most 0.0312 µg/mL; under setting [3], at most 0.0312 µg/mL; under setting [4], at most 0.0312 µg/mL.
On to `NCC[C@H](O)C(=O)N[C@@H]1C[C@H](N)[C@@H](O[C@H]2O[C@H](CN)[C@@H](O)[C@H](O)[C@H]2O)[C@H](O)[C@H]1O[C@H]1O[C@H](CO)[C@@H](O)[C@H](N)[C@H]1O` [Amikacin, amikacin], for which the MIC under setting [1] was 2 µg/mL (≈ 3.42 µM), the MIC under setting [2] came to 2 µg/mL (≈ 3.42 µM), the MIC under setting [3] amounted to 2 µg/mL (≈ 3.42 µM) and the MIC under setting [4] stood at 2 µg/mL (≈ 3.42 µM).

The MIC is the lowest concentration that inhibits growth of the organism.
